The results in this text go back to patent US5502035A, “N-terminus modified analogs of LHRH” (Tap Holdings Inc., priority 1994, dated 1996).

Non-standard residues stand in square brackets, D forms with d. Residues, ends and D or L forms follow the SMILES beside them. Groups on a side chain read outwards from the residue. *: point of attachment. dAla(benzothien-2-yl) = N[C@H](Cc1cc2ccccc2s1)C(=O)O; Shikimoyl = O=C(C1=C[C@@H](O)[C@@H](O)[C@H](O)C1)*; X4 = O=C([C@@H](O)[C@@H](O)[C@H](O)[C@@H](O)CO)*; dPhe(4-Cl) = N[C@H](Cc1ccc(Cl)cc1)C(=O)O; d2Nal = N[C@H](Cc1ccc2ccccc2c1)C(=O)O; Lys(iPr) = CC(C)NCCCC[C@H](N)C(=O)O; NMeY = CN[C@@H](Cc1ccc(O)cc1)C(=O)O; hArg = N=C(N)NCCCC[C@H](N)C(=O)O; d3Pal = N[C@H](Cc1cccnc1)C(=O)O; Nicotinoyl = O=C(c1cccnc1)*; Aze = O=C(O)[C@@H]1CCN1; azaGly = NNC(=O)O; βAla = NCCC(=O)O; Sar = CNCC(=O)O

The experiment addresses T1, LHRH (Rattus norvegicus, UniProt P30969).
T1 construct: endogenous in cells; host or cells: rat pituitary cells (own knowledge of the cited Haviv 1989 method)
T1 sequence (P30969 1-327): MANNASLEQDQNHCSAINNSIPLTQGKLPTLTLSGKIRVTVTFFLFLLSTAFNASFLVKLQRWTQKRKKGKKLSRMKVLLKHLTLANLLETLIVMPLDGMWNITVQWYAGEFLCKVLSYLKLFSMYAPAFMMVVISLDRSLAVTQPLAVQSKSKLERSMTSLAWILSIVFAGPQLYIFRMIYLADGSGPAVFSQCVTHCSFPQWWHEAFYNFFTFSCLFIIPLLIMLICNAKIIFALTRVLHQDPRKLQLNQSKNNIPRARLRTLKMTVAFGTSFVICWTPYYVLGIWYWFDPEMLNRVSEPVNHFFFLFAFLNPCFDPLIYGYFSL
Description: in vitro test for LHRH antagonist potency (pA2). The conditions noted are these: negative logarithm of the antagonist concentration required to shift the response curve produced by the agonist leuprolide to two-fold higher concentration. It is filed as cell-based. The method, then: Representative compounds of the present invention were evaluated in an in vitro test for LHRH antagonist potency (pA2). The test employed the method detailed in F. Haviv, et al. J. Med. Chem., 32:2340-2344 (1989). The values of pA2 are the negative logarithms of the concentration of the particular antagonist test compound required to shift the response curve produced by the agonist leuprolide to two-fold higher concentration. (Leuprolide is the LHRH agonist having the structure 5-oxo-Pro^1 -His^2 -Trp^3 -Ser^4 -Tyr^5 -D-Leu^6 -Leu^7 -Arg^8 -Pro^9 -NHEt and is disclosed and claimed in U.S. Pat. No. 4,005,063.) Typically pA2 values of 9.5 or greater are indicative of good LHRH antagonist potency, with values of 10.0 or greater being preferred.
With `CC(C)C[C@H](NC(=O)[C@@H](CCCCNC(=O)c1cccnc1)NC(=O)[C@H](Cc1ccc(O)cc1)N(C)C(=O)[C@H](CO)NC(=O)[C@@H](Cc1cc2ccccc2s1)NC(=O)[C@@H](Cc1ccc(Cl)cc1)NC(=O)NNC(=O)c1cccnc1)C(=O)N[C@@H](CCCCNC(C)C)C(=O)N1CCC[C@H]1C(=O)N[C@H](C)C(N)=O` [Example 32, N-Nicotinyl-Azagly-D4ClPhe-DBal-Ser-NMeTyr-DLys(Nic)-Leu-Lys(Isp)-Pro-DAlaNH2] (Nicotinoyl-[azaGly][dPhe(4-Cl)][dAla(benzothien-2-yl)]S[NMeY][dK](Nicotinoyl)L[Lys(iPr)]P[dA]-NH2), the Kb was 0.0141 nM.

For the compound `CC(C)C[C@H](NC(=O)[C@@H](CCCCNC(=O)CNC(=O)c1cccnc1)NC(=O)[C@H](Cc1ccc(O)cc1)N(C)C(=O)[C@H](CO)NC(=O)[C@@H](Cc1cccnc1)NC(=O)[C@@H](Cc1ccc(Cl)cc1)NC(=O)[C@@H](Cc1ccc2ccccc2c1)NC(=O)C1=C[C@@H](O)[C@@H](O)[C@H](O)C1)C(=O)N[C@@H](CCCCNC(C)C)C(=O)N1CCC[C@H]1C(=O)N[C@H](C)C(N)=O` [Example 29, N-Shikimyl-D2Nal-D4ClPhe-D3Pal-Ser-NMeTyr-DLys(GlyNic)-Leu-Lys(Isp)-Pro-DAlaNH2] (Shikimoyl-[d2Nal][dPhe(4-Cl)][d3Pal]S[NMeY][dK]([Gly-Nicotinoyl])L[Lys(iPr)]P[dA]-NH2), the Kb was 0.0257 nM. As for `CC(C)C[C@H](NC(=O)[C@@H](CCCCNC(=O)c1cccnc1)NC(=O)[C@H](Cc1ccc(O)cc1)N(C)C(=O)[C@H](CO)NC(=O)[C@@H](Cc1cccnc1)NC(=O)[C@@H](Cc1ccc(Cl)cc1)NC(=O)[C@@H](Cc1ccc2ccccc2c1)NC(=O)CNC(=O)[C@@H]1CCCO1)C(=O)N[C@H](CCCCNC(C)C)C(=O)N1CCC[C@H]1C(=O)N[C@H](C)C(N)=O` [Example 89, N (S)-2-Tetrahydrofuroyl-Gly-D2Nal-D4ClPhe-D3Pal-Ser-NMeTyr-DLys(N-epsilon-Nicotinyl) -Leu-DLys(N-epsilon-Isopropyl)-Pro-DAlaNH2], the Kb was 0.132 nM.

In the case of `CC(C)C[C@H](NC(=O)[C@@H](CCCCNC(=O)CNC(=O)C1=C[C@@H](O)[C@@H](O)[C@H](O)C1)NC(=O)[C@H](Cc1ccc(O)cc1)N(C)C(=O)[C@H](CO)NC(=O)[C@@H](Cc1cccnc1)NC(=O)[C@@H](Cc1ccc(Cl)cc1)NC(=O)[C@@H](Cc1ccc2ccccc2c1)NC(=O)CNC(=O)c1cccnc1)C(=O)N[C@@H](CCCCNC(=N)N)C(=O)N1CCC[C@H]1C(=O)N[C@H](C)C(N)=O` [Example 25e, N-Nicotinyl-Gly-D2Nal-D4ClPhe-D3Pal-Ser-NMeTyr-DLys(Gly-Shik)-Leu-Harg-Pro-DAlaNH2] (Nicotinoyl-G[d2Nal][dPhe(4-Cl)][d3Pal]S[NMeY][dK]([Gly-Shikimoyl])L[hArg]P[dA]-NH2), the Kb was 0.00339 nM. The result for `CC(C)C[C@H](NC(=O)[C@@H](CCCCNC(=O)c1cccnc1)NC(=O)[C@H](Cc1ccc(O)cc1)N(C)C(=O)[C@H](CO)NC(=O)[C@@H](Cc1cccnc1)NC(=O)[C@@H](Cc1ccc(Cl)cc1)NC(=O)[C@@H](Cc1ccc2ccccc2c1)NC(=O)CCNC(=O)c1cccnc1)C(=O)N[C@@H](CCCCNC(C)C)C(=O)N1CCC[C@H]1C(=O)N[C@H](C)C(N)=O` [Example 6a, N-Nicotinyl-3Aminopropionyl-D2Nal-D4ClPhe-D3Pal-Ser-NMeTyr-DLys(N-epsilon- Nicotinyl) -Leu-Lys(N-epsilon-Isopropyl)-Pro-DAlaNH2] ({Nicotinoyl-βAla}-[d2Nal][dPhe(4-Cl)][d3Pal]S[NMeY][dK](Nicotinoyl)L[Lys(iPr)]P[dA]-NH2) reads 0.00891 nM; that for `CC(C)C[C@H](NC(=O)[C@@H](CCCCNC(=O)c1cccnc1)NC(=O)[C@H](Cc1ccc(O)cc1)N(C)C(=O)[C@H](CO)NC(=O)[C@@H](Cc1cccnc1)NC(=O)[C@@H](Cc1ccc(Cl)cc1)NC(=O)[C@@H](Cc1ccc2ccccc2c1)NC(=O)[C@@H](CO)NC(=O)C1=C[C@@H](O)[C@@H](O)[C@H](O)C1)C(=O)N[C@@H](CCCCNC(C)C)C(=O)N1CCC[C@H]1C(=O)N[C@H](C)C(N)=O` [Example 7, N-Shikimyl-DSer-D2Nal-D4ClPhe-D3Pal-Ser-NMeTyr-DLys(N-epsilon-Nicotinyl) -Leu-Lys(N-epsilon-Isopropyl)-Pro-DAlaNH2] (Shikimoyl-[dS][d2Nal][dPhe(4-Cl)][d3Pal]S[NMeY][dK](Nicotinoyl)L[Lys(iPr)]P[dA]-NH2), 0.0263 nM; that for `CC(C)C[C@H](NC(=O)[C@@H](CCCCNC(=O)C1=C[C@@H](O)[C@@H](O)[C@H](O)C1)NC(=O)[C@H](Cc1ccc(O)cc1)N(C)C(=O)[C@H](CO)NC(=O)[C@@H](Cc1cccnc1)NC(=O)[C@@H](Cc1ccc(Cl)cc1)NC(=O)[C@@H](Cc1ccc2ccccc2c1)NC(=O)CN(C)C(=O)C1=C[C@@H](O)[C@@H](O)[C@H](O)C1)C(=O)N[C@@H](CCCNC(=N)N)C(=O)N1CCC[C@H]1C(=O)N[C@H](C)C(N)=O` [Example 14b, N-Shikimyl-Sar-D2Nal-D4ClPhe-D3Pal-Ser-NMeTyr-DLys(Shik)-Leu-Arg-Pro-DAlaNH2] (Shikimoyl-[Sar][d2Nal][dPhe(4-Cl)][d3Pal]S[NMeY][dK](Shikimoyl)LRP[dA]-NH2), 0.105 nM.

`CC(C)C[C@H](NC(=O)[C@@H](CCCCNC(=O)C1=C[C@@H](O)[C@@H](O)[C@H](O)C1)NC(=O)[C@H](Cc1ccc(O)cc1)N(C)C(=O)[C@H](CO)NC(=O)[C@@H](Cc1cccnc1)NC(=O)[C@@H](Cc1ccc(Cl)cc1)NC(=O)[C@@H](Cc1ccc2ccccc2c1)NC(=O)CNC(=O)c1cccnc1)C(=O)N[C@@H](CCCNC(=N)N)C(=O)N1CC[C@H]1C(=O)N[C@H](C)C(N)=O` [Example 24, N-Nicotinyl-Gly-D2Nal-D4ClPhe-D3Pal-Ser-NMeTyr-DLys(Shikimyl)-Leu-Arg-Aze-DAlaNH2] (Nicotinoyl-G[d2Nal][dPhe(4-Cl)][d3Pal]S[NMeY][dK](Shikimoyl)LR[Aze][dA]-NH2): the Kb is 0.0282 nM. Next, `CC(C)C[C@H](NC(=O)[C@@H](CCCCNC(=O)C1=C[C@@H](O)[C@@H](O)[C@H](O)C1)NC(=O)[C@H](Cc1ccc(O)cc1)N(C)C(=O)[C@H](CO)NC(=O)[C@@H](Cc1cccnc1)NC(=O)[C@@H](Cc1ccc(Cl)cc1)NC(=O)[C@@H](Cc1ccc2ccccc2c1)NC(=O)CNC(=O)C1=C[C@@H](O)[C@@H](O)[C@H](O)C1)C(=O)N[C@@H](CCCNC(=N)N)C(=O)N1CC[C@H]1C(=O)N[C@H](C)C(N)=O` [Example 19, N-Shikimyl-Gly-D2Nal-D4ClPhe-D3Pal-Ser-NMeTyr-DLys(Shik)-Leu-Arg-Aze-DAlaNH2] (Shikimoyl-G[d2Nal][dPhe(4-Cl)][d3Pal]S[NMeY][dK](Shikimoyl)LR[Aze][dA]-NH2): 0.0407 nM; `CC(C)C[C@H](NC(=O)[C@@H](CCCCNC(=O)CNC(=O)C1=C[C@@H](O)[C@@H](O)[C@H](O)C1)NC(=O)[C@H](Cc1ccc(O)cc1)N(C)C(=O)[C@H](CO)NC(=O)[C@@H](Cc1cccnc1)NC(=O)[C@@H](Cc1ccc(Cl)cc1)NC(=O)[C@@H](Cc1ccc2ccccc2c1)NC(=O)CNC(=O)C1=C[C@@H](O)[C@@H](O)[C@H](O)C1)C(=O)N[C@@H](CCCNC(=N)N)C(=O)N1CCC[C@H]1C(=O)N[C@H](C)C(N)=O` [Example 15d, N-Shikimyl-Gly-D2Nal-D4ClPhe-D3Pal-Ser-NMeTyr-DLys(Gly-Shik)-Leu-Arg-Pro-DAlaNH2] (Shikimoyl-G[d2Nal][dPhe(4-Cl)][d3Pal]S[NMeY][dK]([Gly-Shikimoyl])LRP[dA]-NH2): 0.0178 nM. Consider `CC(C)C[C@H](NC(=O)[C@@H](CCCCNC(=O)CNC(=O)[C@@H](O)[C@@H](O)[C@H](O)[C@@H](O)CO)NC(=O)[C@H](Cc1ccc(O)cc1)N(C)C(=O)[C@H](CO)NC(=O)[C@@H](Cc1cccnc1)NC(=O)[C@@H](Cc1ccc(Cl)cc1)NC(=O)[C@@H](Cc1ccc2ccccc2c1)NC(=O)CNC(=O)[C@@H](O)[C@@H](O)[C@H](O)[C@@H](O)CO)C(=O)N[C@@H](CCCNC(=N)N)C(=O)N1CCC[C@H]1C(=O)N[C@H](C)C(N)=O` [Example 21, N-(L-Gulonyl)-Gly-D2Nal-D4ClPhe-D3Pal-Ser-NMeTyr-DLys(Gly-L-Gulonyl)-Leu-Arg-Pro-DAlaNH2] (X4-G[d2Nal][dPhe(4-Cl)][d3Pal]S[NMeY][dK]([Gly-X4])LRP[dA]-NH2), for which the Kb was 0.0316 nM. As to `CC(C)C[C@H](NC(=O)[C@@H](CCCCNC(=O)c1cccnc1)NC(=O)[C@H](Cc1ccc(O)cc1)N(C)C(=O)[C@H](CO)NC(=O)[C@@H](Cc1cccnc1)NC(=O)[C@@H](Cc1ccc(Cl)cc1)NC(=O)[C@@H](Cc1ccc2ccccc2c1)NC(=O)CNC(=O)C1CCCO1)C(=O)N[C@@H](CCCCNC(C)C)C(=O)N1CCC[C@H]1C(=O)N(C)CC(N)=O` (mixture of isomers) [Example 38, N-(R,S)-Tetrahydrofur-2-oyl-Gly-D2Nal-D4ClPhe-D3Pal-Ser-NMeTyr-DLys(Nicotinyl)-Leu-Lys(Isp)-Pro-SarNH2], the Kb was 0.0309 nM.
